Results on six compounds are retold here after patent US4315928A, “N-Aminosulfenyl carbamate compounds, compositions and use” (priority 1975, dated 1982).

Data set [1] concerns rat. The data set can be described thus: in vivo. To be noted: oral, statement on Table I. As to the method:
(§1) These compositions were also evaluated to determine their peroral toxicity to mammals by conventional methods. The animal selected for this experiment was the rat.

Data set [2] has as its system green beans. The data set can be described thus: Phytotoxicity Test, green beans. The arrangement: key: A rating of 1 indicates no perceptible injury; ratings of 2, 3 and 4 indicate intermediate degrees of injury; ratings of 2, 3 and 4 indicate intermediate degrees of injury; ratings of 2, 3 and 4 indicate intermediate degrees of injury; 5 indicates the plant was dead. The class given is in vivo. As to conditions: ten days. The procedure: (§2) Suspensions of the test compounds were prepared by dissolving one gram of compound in 50 milliliters of acetone in which had been dissolved 0.1 gram (10 percent of the weight of compound) of an alkylphenoxy polyethoxyethanol surfactant, as an emulsifying or dispersing agent. The resulting solution was mixed into 150 milliliters of water to give roughly 200 milliliters of a suspension containing the compound in finely divided form. The thus-prepared stock suspension contained 0.5 percent by weight of compound. The test concentrations in parts per million by weight employed in the tests described hereinbelow were obtained by appropriate dilutions of the stock suspension with water. The test procedures were as follows:
(§3) Experiments were also conducted to determine the phytotoxicity of representative compositions with respect to healthy fresh plants. Solutions of the compounds were prepared as described above to provide a concentration of 2500 parts per million of the test compound. The test plants were sprayed in accordance with the procedure described above for the Mite Foliage Spray Test so as to deliver approximately 100 milliliters of test solution to the leaves of each plant tested. The sprayed plants and controls were set aside for approximately one hour to allow the solutions to dry and were then placed in the greenhouse. After ten days the plants were visually inspected to determine the extent of foliage injury. A rating of 1 indicates no perceptible injury; 5 indicates the plant was dead and ratings of 2, 3 and 4 indicate intermediate degrees of injury based upon the number and extent to which leaves were injured.

Data set [3] has as its system corn. The data set can be described thus: Phytotoxicity Test, corn. It counts as in vivo. Set-up: key: A rating of 1 indicates no perceptible injury; ratings of 2, 3 and 4 indicate intermediate degrees of injury; ratings of 2, 3 and 4 indicate intermediate degrees of injury; ratings of 2, 3 and 4 indicate intermediate degrees of injury; 5 indicates the plant was dead. As to conditions: ten days. The procedure:
as §2, §3

Data set [4] concerns tomato. The data set can be described thus: Phytotoxicity Test, tomato. It counts as in vivo. Set-up: key: A rating of 1 indicates no perceptible injury; ratings of 2, 3 and 4 indicate intermediate degrees of injury; ratings of 2, 3 and 4 indicate intermediate degrees of injury; ratings of 2, 3 and 4 indicate intermediate degrees of injury; 5 indicates the plant was dead. As to conditions: ten days. As to the method:
as §2, §3

Data set [5] deals with cotton. Nature of the data set: Phytotoxicity Test, cotton. The class given is in vivo. Set-up: key: A rating of 1 indicates no perceptible injury; ratings of 2, 3 and 4 indicate intermediate degrees of injury; ratings of 2, 3 and 4 indicate intermediate degrees of injury; ratings of 2, 3 and 4 indicate intermediate degrees of injury; 5 indicates the plant was dead. As to conditions: ten days. The procedure: as §2, §3

The subject of data set [6] is soybeans. The data set can be described thus: Phytotoxicity Test, soybeans. It counts as in vivo. The arrangement: key: A rating of 1 indicates no perceptible injury; ratings of 2, 3 and 4 indicate intermediate degrees of injury; ratings of 2, 3 and 4 indicate intermediate degrees of injury; ratings of 2, 3 and 4 indicate intermediate degrees of injury; 5 indicates the plant was dead. To be noted: ten days. The procedure:
as §2, §3

Data set [7] in a line: in vivo. To be noted: rat, in vivo, po. As to the method:
as §1

Data set [8] deals with bean aphid (Aphis fabae Scop.). The data set can be described thus: whole plant or invertebrate. To be noted: foliar, 24 h, read-out: Insect Toxicity, % Kill at 250 ppm, BA.
Data set [9] deals with two-spotted mite (Tetranychus urticae Koch). Nature of the data set: whole plant or invertebrate. As to conditions: foliar, 144 h, read-out: Insect Toxicity, % Kill at 250 ppm, TSM.
In data set [10] the test system is southern armyworm (Prodenia eridania, (Cram.)). Nature of the data set: whole plant or invertebrate. To be noted: Spodoptera eridania, 72 h, read-out: Insect Toxicity, % Kill at 250 ppm, SAW.
Data set [11] concerns Mexican bean beetle (Epilachna varivestis, Muls.). The data set can be described thus: whole plant or invertebrate. To be noted: 72 h, read-out: Insect Toxicity, % Kill at 250 ppm, MBB.
Data set [12] concerns house flies (Musca domestica, L.). Nature of the data set: whole plant or invertebrate. As to conditions: po, 24 h, read-out: Insect Toxicity, % Kill at 250 ppm, HF.

`CSC(C)=NOC(=O)N(C)SN1CCOCC1` [Compound 3, S-Methyl N-[N'-Methyl-N'-(4-Morpholinosulfenyl)carbamoyloxy]-thioacetimidate]: in [1], the “mammalian toxicity (in words)” value is reported as “extremely low mammalian toxicity”. The “Crop Phytotoxicity, Injury Rating at 2500 ppm, GB” value (“Crop Phytotoxicity … GB” for short) in [2] came to 1. The “Crop Phytotoxicity, Injury Rating at 2500 ppm, CN” value (shortened to “Crop Phytotoxicity … CN”) in data set [3] was found to be 1. Besides, the “Crop Phytotoxicity, Injury Rating at 2500 ppm, TOM” value (“Crop Phytotoxicity … TOM” below) in data set [4] came out at 1. Moreover, the “Crop Phytotoxicity, Injury Rating at 2500 ppm, COT.” value (shortened to “Crop Phytotoxicity … COT.”) in data set [5] worked out at 1. Further, in data set [6], the “Crop Phytotoxicity, Injury Rating at 2500 ppm, SOYBN.” value (from here on “Crop Phytotoxicity … SOYBN.”) is reported as 1.

For `CCSC(C)=NOC(=O)N(C)SN1CCOCC1` [Compound 4, S-Ethyl-N-[N'-Methyl-N'-(4-Morpholinosulfenyl)Carbamoyloxy]Thioacetimidate], in data set [7], the 50% lethal dose (LD50) – broadly, the dose at which mortality reaches 50% – was found to be 141 mg/kg. Also, in [1], the “mammalian toxicity (in words)” value is listed as “extremely low mammalian toxicity”. In addition, the “Crop Phytotoxicity … GB” value in data set [2] was 1. Moreover, the “Crop Phytotoxicity … CN” value in data set [3] was found to be 1. Further, in data set [4], the “Crop Phytotoxicity … TOM” value worked out at 1. In addition, the “Crop Phytotoxicity … COT.” value in data set [5] is given as 1. For the same compound, the “Crop Phytotoxicity … SOYBN.” value in data set [6] worked out at 2. In addition, the mortality at 250 ppm in data set [8], in data set [9], in data set [10], in data set [11] and in data set [12] was 100% in each case.

The compound `CSC(C)=NOC(=O)N(C)SN(C)C` [Compound 11, S-Methyl N-[N'-Methyl-N'-(Dimethylaminosulfenyl)carbamoyloxy]thioacetimidate] came in with an LD50 in [7] of 141 mg/kg. Moreover, the “mammalian toxicity (in words)” value in [1] is “extremely low mammalian toxicity”. Further, the “Crop Phytotoxicity … GB” value in data set [2] amounted to 1. In [3], the “Crop Phytotoxicity … CN” value is 1. Moreover, the “Crop Phytotoxicity … TOM” value in data set [4] is given as 2. Further, the “Crop Phytotoxicity … COT.” value in data set [5] is on record as 1. Also, the “Crop Phytotoxicity … SOYBN.” value in [6] was 1. For the same compound, the mortality at 250 ppm was 100% in data set [8]; 50% in data set [9]; 100% in data set [10]; 100% in data set [11]; 100% in data set [12].

Consider `CSC(C)=NOC(=O)N(C)SN1CCCCC1` [Compound 12, S-Methyl-N-[N'-Methyl-N'-(1-Piperidinosulfenyl)Carbamoyloxy]Thioacetimidate], for which the median lethal dose (LD50) in [7] worked out at 141 mg/kg. Further, the “mammalian toxicity (in words)” value in data set [1] was “extremely low mammalian toxicity”. Also, the “Crop Phytotoxicity … GB” value in data set [2] came out at 1. For the same compound, the “Crop Phytotoxicity … CN” value in data set [3] is listed as 1. In addition, the “Crop Phytotoxicity … TOM” value in data set [4] was 1. The “Crop Phytotoxicity … COT.” value in data set [5] turned out to be 1. Also, the “Crop Phytotoxicity … SOYBN.” value in [6] amounted to 1. Further, the mortality at 250 ppm in data set [8], in [9], in data set [10], in [11] and in data set [12] was 100% each time.

Regarding `CCN(CC)SN(C)C(=O)ON=C(C)SC` [Compound 17], the LD50 in [7] was determined as 178 mg/kg. Also, in data set [1], the “mammalian toxicity (in words)” value was “extremely low mammalian toxicity”. Besides, in data set [2], the “Crop Phytotoxicity … GB” value was determined as 2. Moreover, the “Crop Phytotoxicity … CN” value in [3] is 2. Besides, in data set [4], the “Crop Phytotoxicity … TOM” value was 1. In addition, the “Crop Phytotoxicity … COT.” value in data set [5] was 2. For the same compound, the “Crop Phytotoxicity … SOYBN.” value in data set [6] came out at 2. Further, the mortality at 250 ppm in data set [8] was 100%; in data set [9], 80%; in [10], 100%; in data set [11] it was 100%; in [12] it was 100%.

In turn, `CCCCN(CCCC)SN(C)C(=O)ON=C(C)SC` [Compound 28, S-Methyl N-[N'-Methyl-N'-(Di-n-butylaminosulfenyl)Carbamoyloxy]-Thioacetimidate] came in with a median lethal dose (LD50) in data set [7] of 317 mg/kg. The “mammalian toxicity (in words)” value in data set [1] is on record as “extremely low mammalian toxicity”. The “Crop Phytotoxicity … GB” value in data set [2] was 1. The “Crop Phytotoxicity … CN” value in [3] was 1. The “Crop Phytotoxicity … TOM” value in [4] came out at 1. For the same compound, the “Crop Phytotoxicity … COT.” value in data set [5] amounted to 1. Also, the “Crop Phytotoxicity … SOYBN.” value in data set [6] is on record as 1. In addition, the mortality at 250 ppm in data set [8] stood at 100%; in data set [9], 50%; in data set [10], 100%; in [11], 100%; in [12], 100%.
